What was measured:
[1] = test system: A549; assay: Antiproliferative activity against human A549 cells after 48 hrs by MTT assay; assay type: functional, cell-based
[2] = Antiproliferative activity against human IOSE-144 cells after 48 hrs by MTT assay; assay type: cell-based; conditions: IOSE-144, 48 h
[3] = test system: BGC-823; assay: Antiproliferative activity against human BGC823 cells after 48 hrs by MTT assay; assay type: functional, cell-based; conditions: BGC-823, 48 h
[4] = test system: MCF7; assay: Antiproliferative activity against human MCF7 cells after 48 hrs by MTT assay; assay type: functional, cell-based; conditions: MCF7, 48 h
[5] = test system: A549; assay: Antiproliferative activity against human A549 cells assessed as cell viability at 20 uM after 48 hrs by MTT assay relative to control; assay type: functional; conditions: A549, 48 h, read-out: Activity
[6] = test system: HCT-116; assay: Antiproliferative activity against human HCT116 cells after 48 hrs by MTT assay; assay type: functional, cell-based
[7] = test system: BGC-823; assay: Antiproliferative activity against human BGC823 cells assessed as cell viability at 40 uM after 48 hrs by MTT assay relative to control; assay type: functional; conditions: BGC-823, 48 h, read-out: Activity
[8] = Homo sapiens, A549, 48 h, read-out: IC50
[9] = Homo sapiens, HCT-116, 48 h, read-out: IC50

Question: For `CC(C)(O)CCC[C@@](C)(O)[C@H]1CC[C@]2(C)[C@@H]1[C@H](O)C[C@@H]1[C@@]3(C)CC[C@H](O)C(C)(C)[C@@H]3CC[C@]12C`, which IC50 [1, 8] is on record?
Answer: 5.9 µM

Question: And the IC50 [2]?
Answer: > 100 µM

Question: And the IC50 [3]?
Answer: 33.2 µM

Question: And the IC50 [4]?
Answer: 7.5 µM

Question: And the viability at 20 µM [5]?
Answer: 36.5%

Question: What about the IC50 [6, 9] of the same compound?
Answer: 21.5 µM

Question: What about the viability at 40 µM [7] of the same compound?
Answer: 40.1%

Question: For `C=C(CCCC(C)(C)O)[C@H]1CC[C@]2(C)[C@@H]1[C@H](OS(N)(=O)=O)C[C@@H]1[C@@]3(C)CC[C@H](O)C(C)(C)[C@@H]3CC[C@]12C`, which IC50 [1, 8] is on record?
Answer: 20.9 µM

Question: What about the IC50 [2] of the same compound?
Answer: > 100 µM

Question: And the IC50 [3]?
Answer: > 100 µM

Question: What about the IC50 [4] of the same compound?
Answer: 33.8 µM

Question: And the IC50 [6, 9]?
Answer: > 100 µM

Question: For `C=C(CCCC(C)(C)O)[C@H]1CC[C@]2(C)[C@@H]1[C@H](O)C[C@@H]1[C@@]3(C)CC[C@H](O)C(C)(C)[C@@H]3CC[C@]12C`, which IC50 [1, 8] is on record?
Answer: 29.2 µM

Question: What about the IC50 [2] of the same compound?
Answer: > 100 µM

Question: And the IC50 [3]?
Answer: 34.6 µM

Question: And the IC50 [4]?
Answer: 32.9 µM

Question: And the IC50 [6, 9]?
Answer: > 100 µM

Question: Which IC50 [1, 8] does the source give for `C=C(CCCC(C)(C)O)[C@H]1CC[C@]2(C)[C@@H]1[C@H](OS(N)(=O)=O)C[C@@H]1[C@@]3(C)CC[C@H](OS(N)(=O)=O)C(C)(C)[C@@H]3CC[C@]12C` here?
Answer: 24.1 µM

Question: And the IC50 [2]?
Answer: > 100 µM

Question: And the IC50 [3]?
Answer: 37.7 µM

Question: What about the IC50 [4] of the same compound?
Answer: 30.3 µM

Question: What about the IC50 [6, 9] of the same compound?
Answer: > 100 µM

Question: With `CC(C)(O)CCC[C@@](C)(OS(N)(=O)=O)[C@H]1CC[C@]2(C)[C@@H]1[C@H](O)C[C@@H]1[C@@]3(C)CC[C@H](OS(N)(=O)=O)C(C)(C)[C@@H]3CC[C@]12C` as the compound, how does the IC50 [1, 8] read?
Answer: 8.8 µM

Question: What about the IC50 [2] of the same compound?
Answer: > 100 µM

Question: And the IC50 [3]?
Answer: 14.9 µM

Question: What about the IC50 [4] of the same compound?
Answer: 12.4 µM

Question: What about the IC50 [6, 9] of the same compound?
Answer: 41.5 µM

Question: And the viability at 40 µM [7]?
Answer: 14.5%

Question: Which IC50 [1, 8] does the source give for `C=C(CCCC(C)(C)O)[C@H]1CC[C@]2(C)[C@@H]1[C@H](O)C[C@@H]1[C@@]3(C)CC[C@H](OS(N)(=O)=O)C(C)(C)[C@@H]3CC[C@]12C` here?
Answer: 0.8 µM

Question: What about the IC50 [2] of the same compound?
Answer: > 100 µM

Question: What about the IC50 [3] of the same compound?
Answer: 21.6 µM

Question: What about the IC50 [4] of the same compound?
Answer: 11.9 µM

Question: What about the viability at 20 µM [5] of the same compound?
Answer: 9%

Question: And the IC50 [6, 9]?
Answer: 42.4 µM

Question: What about the viability at 40 µM [7] of the same compound?
Answer: 24.7%

Question: With `CC(C)(O)CCC[C@@](C)(O)[C@H]1CC[C@]2(C)[C@@H]1[C@H](OC(=O)CCC(=O)O)C[C@@H]1[C@@]3(C)CC[C@H](O)C(C)(C)[C@@H]3CC[C@]12C` as the compound, how does the IC50 [1, 8] read?
Answer: > 100 µM

Question: What about the IC50 [2] of the same compound?
Answer: > 100 µM

Question: What about the IC50 [3] of the same compound?
Answer: > 100 µM

Question: And the IC50 [4]?
Answer: 77.1 µM

Question: And the IC50 [6, 9]?
Answer: 75.3 µM

Question: For `C=C(CCC=C(C)C)[C@H]1CC[C@]2(C)[C@@H]1[C@H](OS(N)(=O)=O)C[C@@H]1[C@@]3(C)CC[C@H](O)C(C)(C)[C@@H]3CC[C@]12C`, which IC50 ([1]; a549) is on record?
Answer: Not Active

Question: What about the IC50 [2] of the same compound?
Answer: > 100 µM

Question: What about the IC50 [3] of the same compound?
Answer: 25.9 µM

Question: And the IC50 [4]?
Answer: 13.5 µM

Question: And the IC50 ([6]; hct-116)?
Answer: Not Active

Question: And the viability at 40 µM [7]?
Answer: 21.2%

Question: Which results are given for `CC(C)=CCC[C@@](C)(O)[C@H]1CC[C@]2(C)[C@@H]1[C@H](OS(N)(=O)=O)C[C@@H]1[C@@]3(C)CC[C@H](O)C(C)(C)[C@@H]3CC[C@]12C`?
Answer: IC50 [1, 8]: 23.8 µM; IC50 [2]: > 100 µM; IC50 [3]: 25.5 µM; IC50 [4]: 18.2 µM; IC50 [6, 9]: 57.9 µM; viability at 40 µM [7]: 19.9%

Question: Which results are given for `C=C(CCCC(C)(C)OS(N)(=O)=O)[C@H]1CC[C@]2(C)[C@@H]1[C@H](O)C[C@@H]1[C@@]3(C)CC[C@H](O)C(C)(C)[C@@H]3CC[C@]12C`?
Answer: IC50 [1, 8]: 13.7 µM; IC50 [2]: > 100 µM; IC50 [3]: 32 µM; IC50 [4]: 20.8 µM; IC50 ([6]; hct-116): Not Active; viability at 40 µM [7]: 39.9%

Question: Which results are given for `O=c1[nH]cc(F)c(=O)[nH]1` [FLUOROURACIL]?
Answer: IC50 [1, 8]: 10.5 µM; IC50 [3]: 34.8 µM; IC50 [4]: 19.2 µM; IC50 [6, 9]: 29.2 µM

Question: With `CC(C)(O)CCC[C@@](C)(O)[C@H]1CC[C@]2(C)[C@@H]1[C@H](O)C[C@@H]1[C@@]3(C)CC[C@H](OS(N)(=O)=O)C(C)(C)[C@@H]3CC[C@]12C` as the compound, how does the IC50 [1, 8] read?
Answer: 0.2 µM

Question: What about the IC50 [2] of the same compound?
Answer: > 100 µM

Question: And the IC50 [3]?
Answer: 14 µM

Question: What about the IC50 [4] of the same compound?
Answer: 14.6 µM

Question: And the viability at 20 µM [5]?
Answer: 6%

Question: What about the IC50 ([6]; hct-116) of the same compound?
Answer: Not Active

Question: What about the viability at 40 µM [7] of the same compound?
Answer: 40%

Question: For `CC(C)=CCC[C@@](C)(O)[C@H]1CC[C@]2(C)[C@@H]1[C@H](O)C[C@@H]1[C@@]3(C)CC[C@H](OS(N)(=O)=O)C(C)(C)[C@@H]3CC[C@]12C`, which IC50 [1, 8] is on record?
Answer: 9.9 µM

Question: What about the IC50 [2] of the same compound?
Answer: > 100 µM

Question: And the IC50 [3]?
Answer: 22.1 µM

Question: What about the IC50 [4] of the same compound?
Answer: 14.5 µM

Question: What about the IC50 [6, 9] of the same compound?
Answer: 26.8 µM

Question: And the viability at 40 µM [7]?
Answer: 17.1%

Question: With `CC(C)(O)CCC[C@@](C)(O)[C@H]1CC[C@]2(C)[C@@H]1[C@H](OC(=O)CCC(=O)O)C[C@@H]1[C@@]3(C)CC[C@H](OC(=O)CCC(=O)O)C(C)(C)[C@@H]3CC[C@]12C` as the compound, how does the IC50 [1, 8] read?
Answer: > 100 µM

Question: And the IC50 [2]?
Answer: > 100 µM

Question: What about the IC50 [3] of the same compound?
Answer: > 100 µM

Question: And the IC50 [4]?
Answer: 40.3 µM

Question: And the IC50 [6, 9]?
Answer: > 100 µM

— ChEMBL document CHEMBL4002607, “Sulfamic and succinic acid derivatives of 25-OH-PPD and their activities to MCF-7, A-549, HCT-116, and BGC-823 cell lines” (Bioorg Med Chem Lett, 2017)
